The text below walks through data of patent publication US7902195B2, “Pyridine [3,4-b] pyrazinones” (Pharmacia & Upjohn Company LLC, priority 2006, dated 2011).

The structures appear in SMILES notation.

One may read the IC50 as the point on the concentration scale where inhibition reaches its midpoint.

This experiment addresses T1, PDE5 enzyme isolated from human platelets (Homo sapiens, UniProt O76074).
T1 construct: The PDE5 enzyme for use in the assay can be obtained from human platelets; from tissue; host or cells: human platelets
Briefly: Alternative human platelet PDE5 enzyme inhibition scintillation proximity assay (Method 2). Type of experiment: biochemical. The settings on record: cGMP substrate 50 nM, 60 minutes at room temperature. The source says: The IC50 of a test compound can be measured using an in vitro assay using PDE5 enzyme isolated from human platelets. The IC50 is the concentration of test compound required to inhibit the hydrolysis of cGMP to GMP by the PDE5 enzyme by 50% relative to the activity of uninhibited controls. The PDE5 enzyme for use in the assay can be obtained from human platelets by appropriate modification of the method of Thompson, W J et al.; Biochemistry 18(23), 5228-5237, 1979, as described by Ballard S A et al.; J. Urology 159(6), 2164-2171, 1998. The PDE5 enzyme so obtained can be used to catalyze the hydrolysis of [^3H]cGMP (Amersham Biosciences) to 5′ nucleotide [^3H]GMP. The [^3H]GMP binds to yttrium silicate SPA beads (Amersham Biosciences) and is detected by scintillation counting. More specifically, the effect of a test compound at different concentrations can be evaluated in the assay by contacting the compound with a fixed amount of PDE5 enzyme in the presence of substrate (cGMP […] in a 3:1 ratio unlabelled to [^3H]-labeled). Scintillation counting can be used as described above to determine relative PDE5 enzyme activity. The inhibition of PDE5 enzyme activity is then calculated relative to total PDE5 enzyme activity of uninhibited controls.
Method 2: Alternative Human Platelet PDE5 Enzyme Inhibition Scintillation Proximity Assay
PDE5 IC50 Assay: 96-Well Microtiter Plate Format
Buffer A: 20 mM Tris-HCl, 5 mM MgCl2, pH 7.4
Buffer B: 2 mg/ml BSA in Buffer A (enzyme buffer)
cGMP substrate: Final concentration of 50 nM in assay
The amount of ^3H-labeled substrate added depends upon the specific activity of [^3H]cGMP, and it is diluted in Buffer A.
PDE enzyme: Prepared in Buffer B. The dilution factor is determined by enzyme activity.
SPA beads: 4 mg/ml suspension prepared in dH2O.
Stocks of standard and test compound are prepared at 2 mM in 100% DMSO. The test compound is serially diluted in a dilution plate using an 8-point ⅕ log dilution format such that the starting concentration in the assay is 2 μM for an initial IC50 screen. 27 μl of Buffer A are added to the wells of the assay plates. From the dilution plate, 3 μl of diluted compound is delivered in duplicate or 3 μl of 100% DMSO (for positive and negative controls) are added. 30 μl of enzyme are added. For the negative control wells, Buffer B is substituted in place of the enzyme. 30 μl of labeled substrate are added to all wells.
After incubating for 60 minutes at room temperature, the reaction is stopped with the addition of 30 μl of the yttrium silicate beads. These beads are dense and require constant agitation while being added to the plate. The plates are sealed and shaken on a plate shaker for fifteen minutes to allow the beads to bind the GMP product.
After allowing the beads to settle for 30 minutes, plates are read on a NXT TopCount scintillation counter and the data are analyzed as follows. Percent inhibition values are calculated using the means of the 0% and 100% controls on each plate. The estimates of the 4-parameters of the logistic, sigmoid dose-response model are then calculated using the well-level percent inhibition value for the compound. The formula for the four-parameter logistic model may be expressed as Y=((a−d)/(1+(X/c)^b))+d, where Y is the response, X is the concentration, a is the lower asymptote (minimum response), d is the upper asymptote (maximum response), c is the model IC50 (in the same units as X), and b is the slope (as described in De Lean, A., P. J. Munson, and D. Rodbard (“Simultaneous analysis of families of sigmoidal curves: application to bioassay, radioligand assay, and physiological dose-response curves.” Am. J. Physiol. 235(2): E97-E102, 1978). These estimates are used to calculate the concentration that corresponds to 50% inhibition.
Compounds were tested in accordance with Method 2 above yielding the IC50 values described in Table C.
A general note: In a scintillation proximity assay essentially only radioactivity close to the scintillant gives light.
Turning to `CCCOCCn1c(=O)c(N2CCN(CCO)CC2)nc2cnc(-c3ccc(Cl)cc3)cc21` [Example 13, 7-(4-chlorophenyl)-3-(4-(2-hydroxyethyl)piperazin-1-yl)-1-(2-propoxyethyl)pyrido[3,4-b]pyrazin-2(1H)-one], the IC50 is 1.35 nM.

Turning to `CCCOCCn1c(=O)c(N2CCN(CCO)CC2)nc2cnc(-c3ccc(O)cc3)cc21` [Example 14, 3-(4-(2-hydroxyethyl)piperazin-1-yl)-7-(4-hydroxyphenyl)-1-(2-propoxyethyl)pyrido[3,4-b]pyrazin-2(1H)-one], half-maximal inhibition (IC50) was put at 832 nM.

Compound `CCCOCCn1c(=O)c(N2CCN(CCO)CC2)nc2cnc(-c3ccccc3F)cc21` [Example 38, 7-(2-fluorophenyl)-3-(4-(2-hydroxyethyl)piperazin-1-yl)-1-(2-propoxyethyl)pyrido[3,4-b]pyrazin-2(1H)-one] returned an IC50 of 42.2 nM.

`CCCOCCn1c(=O)c(N2CCN(CC(C)(C)O)CC2)nc2cnc(-c3ccc(OC)nc3)cc21` [Example 43, 3-(4-(2-hydroxy-2-methylpropyl)piperazin-1-yl)-7-(6-methoxypyridin-3-yl)-1-(2-propoxyethyl)pyrido[3,4-b]pyrazin-2(1H)-one]: the IC50 was 0.208 nM. Then `CCCOCCn1c(=O)c(N2CCNCC2)nc2cnc(-c3ccc(OC)nc3)cc21` [Example 1, 7-(6-methoxypyridin-3-yl)-3-(piperazin-1-yl)-1-(2-propoxyethyl)pyrido[3,4-b]pyrazin-2(1H)-one], with 3.28 nM. The result for `CCCOCCn1c(=O)c(N2CCN(CCCO)CC2)nc2cnc(-c3ccc(OC)nc3)cc21` [Example 11, 3-[4-(3-hydroxypropyl)piperazin-1-yl]-7-(6-methoxypyridin-3-yl)-1-(2-propoxyethyl)pyrido[3,4-b]pyrazin-2(1H)-one] reads 0.177 nM; that for `CCCOCCn1c(=O)c(N2CCN(CCO)CC2)nc2cnc(-c3ccc(OC)c(F)c3)cc21` [Example 33, 7-(3-fluoro-4-methoxyphenyl)-3-(4-(2-hydroxyethyl)piperazin-1-yl)-1-(2-propoxyethyl)pyrido[3,4-b]pyrazin-2(1H)-one], 13.6 nM; that for `CCCOCCn1c(=O)c(N2CCCC(O)C2)nc2cnc(-c3ccc(OC)nc3)cc21` (stereo not drawn) [Example 4, 3-(3-hydroxypiperidin-1-yl)-7-(6-methoxypyridin-3-yl)-1-(2-propoxyethyl)pyrido[3,4-b]pyrazin-2(1H)-one], 0.225 nM. Then `CCCOCCn1c(=O)c(N2CCN(CCO)CC2)nc2cnc(-c3cccc(OC)c3)cc21` [Example 29, 3-(4-(2-hydroxyethyl)piperazin-1-yl)-7-(3-methoxyphenyl)-1-(2-propoxyethyl)pyrido[3,4-b]pyrazin-2(1H)-one], with 3.07 nM; and `CCCOCCn1c(=O)c(N2CCN(CCO)CC2)nc2cnc(-c3cccc(OCC)c3)cc21` [Example 32, 7-(3-ethoxyphenyl)-3-(4-(2-hydroxyethyl)piperazin-1-yl)-1-(2-propoxyethyl)pyrido[3,4-b]pyrazin-2(1H)-one], with 158 nM; and `CCCOCCn1c(=O)c(N2CCOCC2)nc2cnc(-c3ccc(OC)nc3)cc21` [Example 3, 7-(6-methoxypyridin-3-yl)-3-morpholin-4-yl-1-(2-propoxyethyl)pyrido[3,4-b]pyrazin-2(1H)-one], with 1.01 nM. In the case of `CCCOCCn1c(=O)c(N2CC(C)N(CCCO)C(C)C2)nc2cnc(-c3ccc(OC)nc3)cc21` (stereo not drawn) [Example 10, 3-[4-(3-hydroxypropyl)-3,5-dimethylpiperazin-1-yl]-7-(6-methoxypyridin-3-yl)-1-(2-propoxyethyl)pyrido[3,4-b]pyrazin-2(1H)-one], the half-inhibitory concentration (IC50) is 0.193 nM. Then `CCCOCCn1c(=O)c(N2CCN(CCO)CC2)nc2cnc(-c3cc(Cl)ccc3F)cc21` [Example 34, 7-(5-chloro-2-fluorophenyl)-3-(4-(2-hydroxyethyl)piperazin-1-yl)-1-(2-propoxyethyl)pyrido[3,4-b]pyrazin-2(1H)-one], with 12.6 nM. Then `CCCOCCn1c(=O)c(N2CCN(CCO)CC2)nc2cnc(-c3ccc(F)cc3F)cc21` [Example 18, 7-(2,4-difluorophenyl)-3-(4-(2-hydroxyethyl)piperazin-1-yl)-1-(2-propoxyethyl)pyrido[3,4-b]pyrazin-2(1H)-one], with 29.9 nM; and `CCCOCCn1c(=O)c(N2CCN(CCO)CC2)nc2cnc(-c3cccc(OC)c3F)cc21` [Example 20, 7-(2-fluoro-3-methoxyphenyl)-3-(4-(2-hydroxyethyl)piperazin-1-yl)-1-(2-propoxyethyl)pyrido[3,4-b]pyrazin-2(1H)-one], with 1.59 nM; and `CCCOCCn1c(=O)c(N2CCN(CCO)CC2)nc2cnc(-c3cccc(Cl)c3)cc21` [Example 16, 7-(3-chlorophenyl)-3-(4-(2-hydroxyethyl)piperazin-1-yl)-1-(2-propoxyethyl)pyrido[3,4-b]pyrazin-2(1H)-one], with 3.34 nM. The result for `CCCOCCn1c(=O)c(N2CCN([C@@H](C)[C@@H](C)O)CC2)nc2cnc(-c3ccc(OC)nc3)cc21` [Example 44, 3-(4-((2S,3R)-3-hydroxybutan-2-yl)piperazin-1-yl)-7-(6-methoxypyridin-3-yl)-1-(2-propoxyethyl)pyrido[3,4-b]pyrazin-2(1H)-one] reads 0.33 nM. On to `CCCOCCn1c(=O)c(N2CCN(CCO)CC2)nc2cnc(-c3ccc(C)cc3)cc21` [Example 27, 3-(4-(2-hydroxyethyl)piperazin-1-yl)-1-(2-propoxyethyl)-7-p-tolylpyrido[3,4-b]pyrazin-2(1H)-one], for which it took 9.31 nM to reach half-maximal inhibition (IC50).

`CCCOCCn1c(=O)c(N2CCN(CCO)CC2)nc2cnc(-c3cccc4cnccc34)cc21` [Example 22, 3-(4-(2-hydroxyethyl)piperazin-1-yl)-7-(isoquinolin-5-yl)-1-(2-propoxyethyl)pyrido[3,4-b]pyrazin-2(1H)-one] yielded an IC50 greater than 2000 nM. Then `CCCOCCn1c(=O)c(N2CCN(CCO)CC2)nc2cnc(-c3ccc(OCC)cc3)cc21` [Example 24, 7-(4-ethoxyphenyl)-3-(4-(2-hydroxyethyl)piperazin-1-yl)-1-(2-propoxyethyl)pyrido[3,4-b]pyrazin-2(1H)-one], with 1400 nM. The result for `CCCOCCn1c(=O)c(N2CCN(CCO)CC2)nc2cnc(-c3ccc(OC)cc3)cc21` [Example 17, 3-(4-(2-hydroxyethyl)piperazin-1-yl)-7-(4-methoxyphenyl)-1-(2-propoxyethyl)pyrido[3,4-b]pyrazin-2(1H)-one] reads 7.71 nM. Then `CCCOCCn1c(=O)c(N2CCN(CCO)CC2)nc2cnc(-c3ccc(OC(C)C)cc3)cc21` [Example 21, 3-(4-(2-hydroxyethyl)piperazin-1-yl)-7-(4-isopropoxyphenyl)-1-(2-propoxyethyl)pyrido[3,4-b]pyrazin-2(1H)-one], with 413 nM; and `CCCOCCn1c(=O)c(N2C[C@H]3C[C@@H]2CN3)nc2cnc(-c3ccc(OC)nc3)cc21` [Example 2, 3-[(1R,4R)-2,5-diazabicyclo[2.2.1]hept-2-yl]-7-(6-methoxypyridin-3-yl)-1-(2-propoxyethyl)pyrido[3,4-b]pyrazin-2(1H)-one], with 2.38 nM; and `CCCOCCn1c(=O)c(N2CCN(CC(=O)O)CC2)nc2cnc(-c3ccc(OC)nc3)cc21` [Example 8, {4-[7-(6-methoxypyridin-3-yl)-2-oxo-1-(2-propoxyethyl)-1,2-dihydropyrido[3,4-b]pyrazin-3-yl]piperazin-1-yl}acetic acid], with 0.517 nM.
